Laboratory results reported in publication PMC7114135, “Interaction between the Antimalarial Drug Dispiro-Tetraoxanes and Human Serum Albumin: A Combined Study with Spectroscopic Methods and Computational Studies” (ACS Omega, 2020).

Target: T1, human serum albumin (HSA) (Homo sapiens, UniProt P02768)
T1 construct: gene ALB; fatty-acid-free HSA (Sigma-Aldrich A3782)
Test: intrinsic fluorescence quenching (modified Stern-Volmer, binding constant Kb, […] K), supported by UV-vis, time-resolved fluorescence and CD
Conditions: read-out: Kb (L mol^-1) (converted)

T1 sequence (P02768 25-609): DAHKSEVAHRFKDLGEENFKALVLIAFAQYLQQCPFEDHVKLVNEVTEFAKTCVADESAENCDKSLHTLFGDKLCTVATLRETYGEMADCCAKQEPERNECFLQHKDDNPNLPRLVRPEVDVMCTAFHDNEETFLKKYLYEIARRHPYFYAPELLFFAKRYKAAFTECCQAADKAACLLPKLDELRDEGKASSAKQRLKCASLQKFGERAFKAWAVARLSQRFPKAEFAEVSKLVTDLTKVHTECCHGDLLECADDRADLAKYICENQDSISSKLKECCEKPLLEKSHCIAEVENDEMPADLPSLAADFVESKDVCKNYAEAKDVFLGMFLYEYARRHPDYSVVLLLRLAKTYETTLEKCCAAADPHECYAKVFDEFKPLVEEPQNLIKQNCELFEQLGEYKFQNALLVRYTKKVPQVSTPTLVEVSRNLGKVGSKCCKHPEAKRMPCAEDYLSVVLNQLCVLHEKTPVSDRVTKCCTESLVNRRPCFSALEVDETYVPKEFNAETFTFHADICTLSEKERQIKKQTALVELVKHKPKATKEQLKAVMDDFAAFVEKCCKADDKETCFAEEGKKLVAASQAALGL

Row | Kd [µM] | SMILES
1 | 16 | O=S(=O)(CCCCl)CN1CCC2(CC1)OOC1(CCCC1)OO2 [TO1]
2 | 93.2 | CCS(=O)(=O)CN1CCC2(CC1)OOC1(CCCCC1)OO2 [TO2]
